Patent US20020049151A1, “Therapeutic approaches to diseases by suppression of the NURR subfamily of nuclear transcription factors” (priority 2000, published 2002)
Entries after “also recorded” stand apart in the source; their conditions may differ.

Test system: NURR1 mRNA
Assay: Northern blot of NURR1 mRNA in primary synoviocytes
Format: cell-based, human
Conditions: for NURR1 mRNA levels after stimulation: 25 μM forskolin, 20 ng/ml PMA, 10 ng/ml TNFα, IL-1β, IL-6, 1 μM PGE2, CRH
Description: Regulation of gene expression by the protein kinase A and C pathways represent important signaling events in RA synoviocytes (Ben-Av et al., 1995; Crofford et al., 1994; Firestein and Manning, 1999). […] To investigate the involvement of the protein kinase C signaling pathways in NURR regulation, synoviocytes were treated with phorbal myristic acetate (PMA). […] In contrast, dexamethasone had little effect on forskolin- or PMA-induced NUR77 levels.
In FIG. 4 total RNA was extracted and northern blot analysis was performed. Filters were hybridized with a cDNA for NURR1 or NUR77 and also with GAPDH to control for loading and transfer. Synovial explants were left untreated [C] or incubated with 10^−8M CRH for the indicated times. (FIG. 4A) Confluent monolayers of primary synoviocytes were left untreated [C] or pretreated with 10^−8M dexamethasone (DEX) for 2 h prior to the addition of 25μM forskolin (FOR) or 20 ng/ml of phorbal myristic acetate (PMA). (FIG. 4B)
Therefore the pathological importance of the NURR transcription factors in inflammatory joint disease was further examined by determining the ability of pro-inflammatory agonists to regulate NURR transcript levels in primary synoviocytes and synovium explant tissue (FIG. 6).
For FIG. 6 each membrane was reprobed with a GAPDH cDNA to control for loading and transfer. NURR1 mRNA levels were measured by northern analysis using total RNA extracted from synoviocytes left untreated [C] or cultured for the time indicated with (A) TNFα (10 ng/ml) in the presence or absence of pre-treatment with 10^−8M dexamethasone (DEX). (B) IL-1β(10 ng/ml) in the presence or absence of pretreatment with 2 μM indomethacin (INDO) or 10^−8M DEX. (C) or synovial explants cultured with IL-6 (10 ng/ml). (D) 1 μM PGE2. (E) 25 μM forskolin (FOR) or […] for 1h in the absence or presence of 5 µg/ml cycloheximide (CHX).
Northern analysis of primary RA synoviocytes were untreated (lane 1) or treated for 1 hour with TNFα (lane 2), IL-1β (lane 3), and PGE2 (lane 4). TNFα and IL-1β were used at a concentration of 10 ng/mL and PGE2 was at a concentration of 10^-6 M.
Total RNA was isolated from cultured primary synoviocytes or synovial explants. RNA was quantitated by UV absorption and 10 μg of total RNA were electrophoresed on a standard northern gel and transferred to nylon membrane (BioRad, Richmond, Calif.). NURR1 and NUR77 cDNA probes (Murphy and Conneely, 1997), spanning the amino terminal region to avoid cross-hybridization, were radiolabeled to a high specific activity using [α-^32P] dCTP and a random primer labeling system (Promega, Madison, Wis.). Blots were exposed to film at −80° C. using intensifying screens and autoradiographic intensity was quantitated using an imaging densitometer.

Compound	NURR1 mRNA levels after stimulation	effect in stimulating NURR1 mRNA compared with the other agonists (PGE2 1 μM, 10^-6 M)
CCCCC[C@H](O)/C=C/[C@H]1[C@H](O)CC(=O)[C@@H]1C/C=C\CCCC(=O)O [PGE2, reference compound]	rapid and marked increase	most potent and sustained effect
IL-1β: pro-inflammatory cytokine	rapid and marked increase	–
IL-6: pro-inflammatory cytokine	did not significantly induce	–
TNFα	rapid and marked increase; also recorded: increased	–
